Test results reported in US12091399B2, “Phenyltetrazole derivatives as plasma kallikrein inhibitors” (Boehringer Ingelheim International GmbH, priority 2018, dated 2024).
Values belong to the compound of their own block, whether it stands above or below them.

Molecular target: Human PKK (Homo sapiens (Human), UniProt P03952)
Assay: Inhibition of PKK using an endpoint assay (human PKK)
Type: biochemical
Conditions: 1 h at rt, 0.10 μM H-Pro-Phe-Arg-AMC
Protocol: The ability of compounds of formula (I) to inhibit plasma kallikrein (PKK), Factor XIIa (FXIIa), Factor XIa (FXIa), Factor Xa (FXa), Factor IIa (alpha-thrombin; FIIa), plasmin, trypsin, tissue kallikrein 1 (TK1), Factor Vila (FVIIa), or FVIIa complexed with Tissue Factor, phospholipids and CaCl2) (FVIIa/TF/PL/CaCl2) was determined using the following biochemical assays in assay buffer (100 mM Tris, 150 mM NaCL, adjusted to a pH of 7.8 with HCl, and containing 0.1% (w/v) BSA and 0.05% (v/v) Tween20) in the presence of 1% (v/v) DMSO:
Subsequently, PPACK II (Calbiochem) was added as a stop solution to achieve a final concentration of 1 μM and fluorescence was measured using an Envision Reader (PerkinElmer) with the wavelength excitation setting of 355 nm and the wavelength emission setting of 460 nm. The number of the compound corresponds to the number of the Example in the experimental section.

Sequence of Human PKK (P03952 391-638): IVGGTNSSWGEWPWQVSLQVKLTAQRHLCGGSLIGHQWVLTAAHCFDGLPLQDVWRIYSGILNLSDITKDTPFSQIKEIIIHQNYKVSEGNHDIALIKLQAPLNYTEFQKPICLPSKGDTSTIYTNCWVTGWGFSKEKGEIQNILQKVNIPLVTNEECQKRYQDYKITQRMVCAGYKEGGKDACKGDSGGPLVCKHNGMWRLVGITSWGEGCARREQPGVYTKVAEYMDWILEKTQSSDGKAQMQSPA
Sequence of Human PKK (P03952 20-390 partner): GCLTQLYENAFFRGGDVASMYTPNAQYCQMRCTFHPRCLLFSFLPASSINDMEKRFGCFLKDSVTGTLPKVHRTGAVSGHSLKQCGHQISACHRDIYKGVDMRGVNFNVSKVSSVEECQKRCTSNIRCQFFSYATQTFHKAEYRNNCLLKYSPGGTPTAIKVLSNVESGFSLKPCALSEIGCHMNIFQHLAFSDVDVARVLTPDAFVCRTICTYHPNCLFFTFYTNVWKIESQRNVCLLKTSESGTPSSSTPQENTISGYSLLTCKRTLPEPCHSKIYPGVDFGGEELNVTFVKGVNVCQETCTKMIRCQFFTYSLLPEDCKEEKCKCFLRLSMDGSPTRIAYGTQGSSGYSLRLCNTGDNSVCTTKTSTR

IC50: 7 nM
SMILES: Cc1nc(N2CC3COCC(C3)C2)ccc1Cn1cc(C(=O)NCc2cc(Cl)ccc2-n2cnnn2)cn1 [Example 75, N-{[5-chloro-2-(1H-1,2,3,4-tetrazol-1-yl)phenyl]methyl}-1-[(2-methyl-6-{3-oxa-7-azabicyclo[3.3.1]nonan-7-yl}pyridin-3-yl)methyl]-1H-pyrazole-4-carboxamide]

IC50: 122 nM
SMILES: Cc1nc(N2CC3(CCCN3)C2)ccc1Cn1cc(C(=O)NCc2cc(Cl)ccc2-n2cnnn2)cn1 [Example 91, N-{[5-chloro-2-(1H-1,2,3,4-tetrazol-1-yl)phenyl]methyl}-1-[(6-{2,5-diazaspiro[3.4]octan-2-yl}-2-methylpyridin-3-yl)methyl]-1H-pyrazole-4-carboxamide]

IC50: 232 nM
SMILES: Cc1nc(N2CC3(CNC(=O)C3)C2)ccc1Cn1cc(C(=O)NCc2cc(Cl)ccc2-n2cnnn2)cn1 [Example 74, N-{[5-chloro-2-(1H-1,2,3,4-tetrazol-1-yl)phenyl]methyl}-1-[(2-methyl-6-{7-oxo-2,6-diazaspiro[3.4]octan-2-yl}pyridin-3-yl)methyl]-1H-pyrazole-4-carboxamide]

IC50: 3 nM
SMILES: Cc1nc(N2CCC3(CCCO3)C2)ccc1Cn1cc(C(=O)NCc2cc(Cl)ccc2-n2cnnn2)cn1 (centres unmarked) [Example 76, N-{[5-chloro-2-(1H-1,2,3,4-tetrazol-1-yl)phenyl]methyl}-1-[(2-methyl-6-{1-oxa-7-azaspiro[4.4]nonan-7-yl}pyridin-3-yl)methyl]-1H-pyrazole-4-carboxamide]

IC50: 3 nM
SMILES: Cc1nc(N2CCC3CC3C2)ccc1Cn1cc(C(=O)NCc2cc(Cl)ccc2-n2cnnn2)cn1 (centres unmarked) [Example 85, 1-[(6-{3-azabicyclo[4.1.0]heptan-3-yl}-2-methylpyridin-3-yl)methyl]-N-{[5-chloro-2-(1H-1,2,3,4-tetrazol-1-yl)phenyl]methyl}-1H-pyrazole-4-carboxamide]

IC50: 1090 nM
SMILES: Cc1nc(N2CC3(CN(C)C3)C2)ccc1Cn1cc(C(=O)NCc2cc(Cl)ccc2-n2cnnn2)cn1 [Example 83, N-{[5-chloro-2-(1H-1,2,3,4-tetrazol-1-yl)phenyl]methyl}-1-[(2-methyl-6-{6-methyl-2,6-diazaspiro[3.3]heptan-2-yl}pyridin-3-yl)methyl]-1H-pyrazole-4-carboxamide]

IC50: 49 nM
SMILES: Cc1nc(N2CC3CC2CO3)ccc1Cn1cc(C(=O)NCc2cc(Cl)ccc2-n2cnnn2)cn1 (centres unmarked) [Example 77, N-{[5-chloro-2-(1H-1,2,3,4-tetrazol-1-yl)phenyl]methyl}-1-[(2-methyl-6-{2-oxa-5-azabicyclo[2.2.1]heptan-5-yl}pyridin-3-yl)methyl]-1H-pyrazole-4-carboxamide]

IC50: 1060 nM
SMILES: Cc1nc(N2CC3(C2)CN(C(C)C)C3)ccc1Cn1cc(C(=O)NCc2cc(Cl)ccc2-n2cnnn2)cn1 [Example 79, N-{[5-chloro-2-(1H-1,2,3,4-tetrazol-1-yl)phenyl]methyl}-1-({2-methyl-6-[6-(propan-2-yl)-2,6-diazaspiro[3.3]heptan-2-yl]pyridin-3-yl}methyl)-1H-pyrazole-4-carboxamide]

IC50: 22 nM
SMILES: Cc1nc(N2CC3(CCOC3)C2)ccc1Cn1cc(C(=O)NCc2cc(Cl)ccc2-n2cnnn2)cn1 [Example 81, N-{[5-chloro-2-(1H-1,2,3,4-tetrazol-1-yl)phenyl]methyl}-1-[(2-methyl-6-{6-oxa-2-azaspiro[3.4]octan-2-yl}pyridin-3-yl)methyl]-1H-pyrazole-4-carboxamide]

IC50: 127 nM
SMILES: Cc1nc(N2C[C@@H]3C[C@]3(N)C2)ccc1Cn1cc(C(=O)NCc2cc(Cl)ccc2-n2cnnn2)cn1 [Example 88, 1-({6-[(1R,5S)-1-amino-3-azabicyclo[3.1.0]hexan-3-yl]-2-methylpyridin-3-yl}methyl)-N-{[5-chloro-2-(1H-1,2,3,4-tetrazol-1-yl)phenyl]methyl}-1H-pyrazole-4-carboxamide]

IC50: 7 nM
SMILES: Cc1nc(N2CCC3CC32)ccc1Cn1cc(C(=O)NCc2cc(Cl)ccc2-n2cnnn2)cn1 (centres unmarked) [Example 82, 1-[(6-{2-azabicyclo[3.1.0]hexan-2-yl}-2-methylpyridin-3-yl)methyl]-N-{[5-chloro-2-(1H-1,2,3,4-tetrazol-1-yl)phenyl]methyl}-1H-pyrazole-4-carboxamide]

The next lines start with the compound.

SMILES: Cc1nc(N2CC3CC3C2)ccc1Cn1cc(C(=O)NCc2cc(Cl)ccc2-n2cnnn2)c(C)n1 (centres unmarked) [Example 19]
IC50: 0.7 nM

SMILES: Cc1nc(N2CC3CC3C2)ccc1Cn1cc(C(=O)NCc2c(-n3cnnn3)ccc(Cl)c2F)c(Cl)n1 (centres unmarked) [Example 7]
IC50: 0.8 nM

SMILES: COCc1nn(Cc2cnc(N3CC4CC4C3)nc2C)cc1C(=O)NCc1c(-n2cnnn2)ccc(Cl)c1F (centres unmarked) [Example 35]
IC50: 1 nM

SMILES: Cc1cc(Cl)cc(CNC(=O)c2cnn(Cc3ccc(N4CC5CC5C4)nc3C)c2)c1-n1cnnn1 (centres unmarked) [Example 4]
IC50: 82 nM

SMILES: Cc1nc(N2CC3C(C2)C3(F)F)ncc1Cn1cc(C(=O)NCc2c(-n3cnnn3)ccc(Cl)c2F)c2cncnc21 (centres unmarked) [Example 23]
IC50: 1 nM

SMILES: Cc1nc(N2CC3(CCCO3)C2)ccc1Cn1cc(C(=O)NCc2cc(Cl)ccc2-n2cnnn2)cn1 [Example 69, N-{[5-chloro-2-(1H-1,2,3,4-tetrazol-1-yl)phenyl]methyl}-1-[(2-methyl-6-{5-oxa-2-azaspiro[3.4]octan-2-yl}pyridin-3-yl)methyl]-1H-pyrazole-4-carboxamide]
IC50: 5 nM

SMILES: Cc1nc(N2CC3(CC(O)C3)C2)ccc1Cn1cc(C(=O)NCc2cc(Cl)ccc2-n2cnnn2)cn1 [Example 64, N-{[5-chloro-2-(1H-1,2,3,4-tetrazol-1-yl)phenyl]methyl}-1-[(6-{6-hydroxy-2-azaspiro[3.3]heptan-2-yl}-2-methylpyridin-3-yl)methyl]-1H-pyrazole-4-carboxamide]
IC50: 225 nM

SMILES: Cc1nc(N2CCC3(CCOC3)C2)ccc1Cn1cc(C(=O)NCc2cc(Cl)ccc2-n2cnnn2)cn1 (centres unmarked) [Example 71, N-{[5-chloro-2-(1H-1,2,3,4-tetrazol-1-yl)phenyl]methyl}-1-[(2-methyl-6-{2-oxa-7-azaspiro[4.4]nonan-7-yl}pyridin-3-yl)methyl]-1H-pyrazole-4-carboxamide]
IC50: 8 nM

SMILES: Cc1nc(N2CC3OCC(N)C3C2)ccc1Cn1cc(C(=O)NCc2cc(Cl)ccc2-n2cnnn2)cn1 (centres unmarked) [Example 70, 1-[(6-{3-amino-hexahydro-2H-furo[2,3-c]pyrrol-5-yl}-2-methylpyridin-3-yl)methyl]-N-{[5-chloro-2-(1H-1,2,3,4-tetrazol-1-yl)phenyl]methyl}-1H-pyrazole-4-carboxamide]
IC50: 845 nM

SMILES: Cc1nc(N2CC3CC(C2)O3)ccc1Cn1cc(C(=O)NCc2cc(Cl)ccc2-n2cnnn2)cn1 [Example 65, N-{[5-chloro-2-(1H-1,2,3,4-tetrazol-1-yl)phenyl]methyl}-1-[(2-methyl-6-{6-oxa-3-azabicyclo[3.1.1]heptan-3-yl}pyridin-3-yl)methyl]-1H-pyrazole-4-carboxamide]
IC50: 10 nM

SMILES: Cc1nc(N2CC3CC2C3)ccc1Cn1cc(C(=O)NCc2cc(Cl)ccc2-n2cnnn2)cn1 [Example 67, 1-[(6-{2-azabicyclo[2.1.1]hexan-2-yl}-2-methylpyridin-3-yl)methyl]-N-{[5-chloro-2-(1H-1,2,3,4-tetrazol-1-yl)phenyl]methyl}-1H-pyrazole-4-carboxamide]
IC50: 10 nM

SMILES: Cc1nc(N2CC3CC3C2)ccc1Cn1cc(C(=O)NCc2cc(Cl)ccc2-n2cnnn2)c2cccnc21 (centres unmarked) [Example 50]
IC50: 9 nM

SMILES: Cc1nc(N2CC3CCCC3C2)ccc1Cn1cc(C(=O)NCc2cc(Cl)ccc2-n2cnnn2)cn1 (centres unmarked) [Example 73, N-{[5-chloro-2-(1H-1,2,3,4-tetrazol-1-yl)phenyl]methyl}-1-[(2-methyl-6-{octahydrocyclopenta[c]pyrrol-2-yl}pyridin-3-yl)methyl]-1H-pyrazole-4-carboxamide]
IC50: 9 nM

SMILES: Cc1nc(N2CC3(CC3)C2)ncc1Cn1cc(C(=O)NCc2cc(Cl)ccc2-n2cnnn2)c(C)n1 [Example 37]
IC50: 2 nM

SMILES: COCc1nn(Cc2cnc(N3CC4C(C3)C4(F)F)nc2C)cc1C(=O)NCc1c(-n2cnnn2)ccc(Cl)c1F (centres unmarked) [Example 32]
IC50: 1 nM

SMILES: Cc1nc(N2CC3CC3C2)ncc1Cn1cc(C(=O)NCc2c(-n3cnnn3)ccc(Cl)c2F)c2cncnc21 (centres unmarked) [Example 26]
IC50: 0.9 nM

SMILES: COC1C2CC1CN(c1ccc(Cn3cc(C(=O)NCc4cc(Cl)ccc4-n4cnnn4)cn3)c(C)n1)C2 (centres unmarked) [Example 84, N-{[5-chloro-2-(1H-1,2,3,4-tetrazol-1-yl)phenyl]methyl}-1-[(6-{6-methoxy-3-azabicyclo[3.1.1]heptan-3-yl}-2-methylpyridin-3-yl)methyl]-1H-pyrazole-4-carboxamide]
IC50: 4 nM

SMILES: Cc1nc(N2CC3(CC3)C2)ncc1Cn1cc(C(=O)NCc2cc(Cl)ccc2-n2cnnn2)c2cncnc21 [Example 57]
IC50: 5 nM

SMILES: Cc1nc(N2CC3CC3C2)ncc1Cn1cc(C(=O)NCc2cc(Cl)ccc2-n2cnnn2)c2cncnc21 (centres unmarked) [Example 27]
IC50: 3 nM

SMILES: Cc1nc(N2CC3C(C2)C3(F)F)ccc1Cn1cc(C(=O)NCc2cc(Cl)ccc2-n2cnnn2)c(C)n1 (centres unmarked) [Example 18]
IC50: 1 nM

SMILES: COCc1nn(Cc2ccc(N3CC4C(C3)C4(F)F)nc2C)cc1C(=O)NCc1cc(Cl)ccc1-n1cnnn1 (centres unmarked) [Example 12]
IC50: 0.9 nM

SMILES: COC[C@H]1[C@H]2CN(c3ccc(Cn4cc(C(=O)NCc5cc(Cl)ccc5-n5cnnn5)cn4)c(C)n3)C[C@@H]12 [Example 55]
IC50: 3 nM

SMILES: Cc1nc(N2CC3CC3C2)ncc1Cn1cc(C(=O)NCc2cc(Cl)ccc2-n2cnnn2)c(C)n1 (centres unmarked) [Example 31]
IC50: 2 nM

SMILES: Cc1nc(N2CC3C(C2)C3(F)F)ccc1Cn1cc(C(=O)NCc2cc(Cl)ccc2-n2cnnn2)c2cncnc21 (centres unmarked) [Example 8]
IC50: 1 nM
